Reference: US6562381B2, “(+)-Cycloolivil as antioxidant obtained from natural source namely stereospermum personatum” (Council of Scientific and Industrial Research, priority 2001, dated 2003)

Assays:
[1] = In vitro free radical (DPPH) scavenging antioxidant potency; type: biochemical; conditions: for 50% Radical scavenging concentration: DPPH radical, tris-HCl buffer pH 7.4, 45 minutes in dark, absorbency at 517 nm, triplicate
Procedure: Antioxidant activity of the compounds was tested for its capacity/potency to scavenge most widely used free radical, 1,1-diphenyl-2-picryl hyrazyl radical (DPPH). […] 200 μl of test compounds were reconstituted to 1 ml in tris-HCl buffer (pH 7.4). […] After incubation for 45 minutes in dark, the absorbency at 517 nm was recorded. Percent radical scavenging activity was calculated accordingly. All the readings were taken in triplicate.

[2] = system: Cyclic AMP phosphodiesterase; conditions: known activity, Chem. Pharm. Bull, 1981, 29, 3586-92; cited from earlier work
[3] = known activity, Chem. Pharm. Bull, 1986, 34, 3514-17; cited from earlier work

Compound	50% Radical scavenging concentration [1]	Antioxidant activity compared with reference drugs Probucol and alpha-tocopherol ([1]; comparison in words)	Cyclic AMP phosphodiesterase inhibition [2]	Ca^2+ antagonist activity [3]
COc1cc([C@H]2c3cc(O)c(OC)cc3C[C@@](O)(CO)[C@@H]2CO)ccc1O [(+)-Cycloolivil]	21.74 µg/mL	better than the above mentioned reference drugs	inhibition	Ca^2+ antagonist activity
Cc1c(C)c2c(c(C)c1O)CCC(C)(CCCC(C)CCCC(C)CCCC(C)C)O2 (stereo not drawn) [DL α-Tocopherol, reference compound]	47.80 µg/mL	–	–	–
